Laboratory results: patent publication US12661345B2, “Compositions for the treatment of hypertension” (The George Institute for Global Health, priority 2017, dated 2026)

Test system: participants with migraine
Assay: Safety: serious adverse events and adverse events of special interest in the 3×3 factorial trial
[1] = Anytime between Week 0 to Week 12, % of participants
[2] = Anytime between Week 0 to Week 12, n/N participants
[3] = Randomization, % of participants
[4] = Randomization, n/N participants

Structure (SMILES): CCC(C)(C)C(=O)O[C@H]1C[C@@H](C)C=C2C=C[C@H](C)[C@H](CC[C@@H]3C[C@@H](O)CC(=O)O3)[C@H]21 [Simvastatin, simvastatin]
- Subjects with any serious adverse event (SAE) in 12 weeks (n/N) (12 weeks): 0/9
- Subjects with any serious adverse event (SAE) in 12 weeks (percent) (12 weeks): 0.0%
- Any SAEs [1]: (0.0%)
- Bradycardia [1]: (0.0%)
- Falls [1]: (0.0%)
- Feeling faint/dizziness [1]: (33.3%)
- Flushing [1]: (11.1%)
- Gastrointestinal complaints [1]: (22.2%)
- Gout [1]: (0.0%)
- Headache [1]: (100.0%)
- Insomnia [1]: (22.2%)
- Muscle cramps [1]: (11.1%)
- Myalgia [1]: (0.0%)
- Nightmares [1]: (11.1%)
- Pedal edema [1]: (0.0%)
- Skin rash/itching [1]: (11.1%)
- Syncope [1]: (0.0%)
- Any SAEs [2]: 0/9
- Bradycardia [2]: 0/9
- Falls [2]: 0/9
- Feeling faint/dizziness [2]: 3/9
- Flushing [2]: 1/9
- Gastrointestinal complaints [2]: 2/9
- Gout [2]: 0/9
- Headache [2]: 9/9
- Insomnia [2]: 2/9
- Muscle cramps [2]: 1/9
- Myalgia [2]: 0/9
- Nightmares [2]: 1/9
- Pedal edema [2]: 0/9
- Skin rash/itching [2]: 1/9
- Syncope [2]: 0/9
- Any SAEs since the last visit? [3]: (0.0%)
- Bradycardia [3]: (0.0%)
- Falls [3]: (11.1%)
- Feeling faint/dizziness [3]: (22.2%)
- Flushing [3]: (33.3%)
- Gastrointestinal complaints [3]: (0.0%)
- Gout [3]: (0.0%)
- Headache [3]: (100.0%)
- Insomnia [3]: (22.2%)
- Muscle cramps [3]: (22.2%)
- Myalgia [3]: (0.0%)
- Nightmares [3]: (11.1%)
- Pedal edema [3]: (0.0%)
- Skin rash/itching [3]: (0.0%)
- Syncope [3]: (0.0%)
- Any SAEs since the last visit? [4]: 0/9
- Bradycardia [4]: 0/9
- Falls [4]: 1/9
- Feeling faint/dizziness [4]: 2/9
- Flushing [4]: 3/9
- Gastrointestinal complaints [4]: 0/9
- Gout [4]: 0/9
- Headache [4]: 9/9
- Insomnia [4]: 2/9
- Muscle cramps [4]: 2/9
- Myalgia [4]: 0/9
- Nightmares [4]: 1/9
- Pedal edema [4]: 0/9
- Skin rash/itching [4]: 0/9
- Syncope [4]: 0/9
- Any SAEs since the last visit? (Week 4, % of participants): (0.0%)
- Bradycardia (Week 4, % of participants): (0.0%)
- Falls (Week 4, % of participants): (0.0%)
- Feeling faint/dizziness (Week 4, % of participants): (22.2%)
- Flushing (Week 4, % of participants): (11.1%)
- Gastrointestinal complaints (Week 4, % of participants): (11.1%)
- Gout (Week 4, % of participants): (0.0%)
- Headache (Week 4, % of participants): (100.0%)
- Insomnia (Week 4, % of participants): (22.2%)
- Muscle cramps (Week 4, % of participants): (0.0%)
- Myalgia (Week 4, % of participants): (0.0%)
- Nightmares (Week 4, % of participants): (0.0%)
- Pedal edema (Week 4, % of participants): (0.0%)
- Skin rash/itching (Week 4, % of participants): (0.0%)
- Syncope (Week 4, % of participants): (0.0%)
- Any SAEs since the last visit? (Week 4, n/N participants): 0/9
- Bradycardia (Week 4, n/N participants): 0/9
- Falls (Week 4, n/N participants): 0/9
- Feeling faint/dizziness (Week 4, n/N participants): 2/9
- Flushing (Week 4, n/N participants): 1/9
- Gastrointestinal complaints (Week 4, n/N participants): 1/9
- Gout (Week 4, n/N participants): 0/9
- Headache (Week 4, n/N participants): 9/9
- Insomnia (Week 4, n/N participants): 2/9
- Muscle cramps (Week 4, n/N participants): 0/9
- Myalgia (Week 4, n/N participants): 0/9
- Nightmares (Week 4, n/N participants): 0/9
- Pedal edema (Week 4, n/N participants): 0/9
- Skin rash/itching (Week 4, n/N participants): 0/9
- Syncope (Week 4, n/N participants): 0/9
- Any SAEs since the last visit? (Week 8, % of participants): (0.0%)
- Bradycardia (Week 8, % of participants): (0.0%)
- Falls (Week 8, % of participants): (0.0%)
- Feeling faint/dizziness (Week 8, % of participants): (11.1%)
- Flushing (Week 8, % of participants): (11.1%)
- Gastrointestinal complaints (Week 8, % of participants): (11.1%)
- Gout (Week 8, % of participants): (0.0%)
- Headache (Week 8, % of participants): (88.9%)
- Insomnia (Week 8, % of participants): (22.2%)
- Muscle cramps (Week 8, % of participants): (0.0%)
- Myalgia (Week 8, % of participants): (0.0%)
- Nightmares (Week 8, % of participants): (0.0%)
- Pedal edema (Week 8, % of participants): (0.0%)
- Skin rash/itching (Week 8, % of participants): (0.0%)
- Syncope (Week 8, % of participants): (0.0%)
- Any SAEs since the last visit? (Week 8, n/N participants): 0/9
- Bradycardia (Week 8, n/N participants): 0/9
- Falls (Week 8, n/N participants): 0/9
- Feeling faint/dizziness (Week 8, n/N participants): 1/9
- Flushing (Week 8, n/N participants): 1/9
- Gastrointestinal complaints (Week 8, n/N participants): 1/9
- Gout (Week 8, n/N participants): 0/9
- Headache (Week 8, n/N participants): 8/9
- Insomnia (Week 8, n/N participants): 2/9
- Muscle cramps (Week 8, n/N participants): 0/9
- Myalgia (Week 8, n/N participants): 0/9
- Nightmares (Week 8, n/N participants): 0/9
- Pedal edema (Week 8, n/N participants): 0/9
- Skin rash/itching (Week 8, n/N participants): 0/9
- Syncope (Week 8, n/N participants): 0/9
- Any SAEs since the last visit? (Week 12, % of participants): (0.0%)
- Bradycardia (Week 12, % of participants): (0.0%)
- Falls (Week 12, % of participants): (0.0%)
- Feeling faint/dizziness (Week 12, % of participants): (0.0%)
- Flushing (Week 12, % of participants): (0.0%)
- Gastrointestinal complaints (Week 12, % of participants): (22.2%)
- Gout (Week 12, % of participants): (0.0%)
- Headache (Week 12, % of participants): (88.9%)
- Insomnia (Week 12, % of participants): (22.2%)
- Muscle cramps (Week 12, % of participants): (11.1%)
- Myalgia (Week 12, % of participants): (0.0%)
- Nightmares (Week 12, % of participants): (11.1%)
- Pedal edema (Week 12, % of participants): (0.0%)
- Skin rash/itching (Week 12, % of participants): (11.1%)
- Syncope (Week 12, % of participants): (0.0%)
- Any SAEs since the last visit? (Week 12, n/N participants): 0/9
- Bradycardia (Week 12, n/N participants): 0/9
- Falls (Week 12, n/N participants): 0/9
- Feeling faint/dizziness (Week 12, n/N participants): 0/9
- Flushing (Week 12, n/N participants): 0/9
- Gastrointestinal complaints (Week 12, n/N participants): 2/9
- Gout (Week 12, n/N participants): 0/9
- Headache (Week 12, n/N participants): 8/9
- Insomnia (Week 12, n/N participants): 2/9
- Muscle cramps (Week 12, n/N participants): 1/9
- Myalgia (Week 12, n/N participants): 0/9
- Nightmares (Week 12, n/N participants): 1/9
- Pedal edema (Week 12, n/N participants): 0/9
- Skin rash/itching (Week 12, n/N participants): 1/9
- Syncope (Week 12, n/N participants): 0/9
- Any SAEs since the last visit? (Week 13, % of participants): (0.0%)
- Bradycardia (Week 13, % of participants): (0.0%)
- Falls (Week 13, % of participants): (0.0%)
- Feeling faint/dizziness (Week 13, % of participants): (11.1%)
- Flushing (Week 13, % of participants): (0.0%)
- Gastrointestinal complaints (Week 13, % of participants): (11.1%)
- Gout (Week 13, % of participants): (0.0%)
- Headache (Week 13, % of participants): (100.0%)
- Insomnia (Week 13, % of participants): (11.1%)
- Muscle cramps (Week 13, % of participants): (22.2%)
- Myalgia (Week 13, % of participants): (11.1%)
- Nightmares (Week 13, % of participants): (11.1%)
- Pedal edema (Week 13, % of participants): (0.0%)
- Rebound hypertension (Week 13, % of participants): (0.0%)
- Skin rash/itching (Week 13, % of participants): (11.1%)
- Syncope (Week 13, % of participants): (0.0%)
- Any SAEs since the last visit? (Week 13, n/N participants): 0/9
- Bradycardia (Week 13, n/N participants): 0/9
- Falls (Week 13, n/N participants): 0/9
- Feeling faint/dizziness (Week 13, n/N participants): 1/9
- Flushing (Week 13, n/N participants): 0/9
- Gastrointestinal complaints (Week 13, n/N participants): 1/9
- Gout (Week 13, n/N participants): 0/9
- Headache (Week 13, n/N participants): 9/9
- Insomnia (Week 13, n/N participants): 1/9
- Muscle cramps (Week 13, n/N participants): 2/9
- Myalgia (Week 13, n/N participants): 1/9
- Nightmares (Week 13, n/N participants): 1/9
- Pedal edema (Week 13, n/N participants): 0/9
- Rebound hypertension (Week 13, n/N participants): 0/9
- Skin rash/itching (Week 13, n/N participants): 1/9
- Syncope (Week 13, n/N participants): 0/9
- Any SAEs since the last visit? (Week 16, % of participants): (11.1%)
- Bradycardia (Week 16, % of participants): (0.0%)
- Falls (Week 16, % of participants): (11.1%)
- Feeling faint/dizziness (Week 16, % of participants): (22.2%)
- Headache (Week 16, % of participants): (77.8%)
- Muscle cramps (Week 16, % of participants): (0.0%)
- Pedal edema (Week 16, % of participants): (0.0%)
- Syncope (Week 16, % of participants): (0.0%)
- Any SAEs since the last visit? (Week 16, n/N participants): 1/9
- Bradycardia (Week 16, n/N participants): 0/9
- Falls (Week 16, n/N participants): 1/9
- Feeling faint/dizziness (Week 16, n/N participants): 2/9
- Headache (Week 16, n/N participants): 7/9
- Muscle cramps (Week 16, n/N participants): 0/9
- Pedal edema (Week 16, n/N participants): 0/9
- Syncope (Week 16, n/N participants): 0/9
